This is an account of results in ChEMBL document CHEMBL1126371, “Indazole and indoline as aromatic bioisosteres in the imidazole class of serotonin 5-HT3 receptor antagonists” (Bioorg Med Chem Lett, 1992).

In experiment [1] the test system is Rattus norvegicus. Put plainly: Dose required for inhibition of bradycardia induced by a submaximal dose (iv) of 5-HT in 8 rats. The format is functional. The conditions noted are these: read-out: ID50 (the source's name).
Experiment [2] addresses Serotonin 3 (5-HT3) receptor. Put plainly: Tested for antagonistic activity on 5-hydroxytryptamine 3 receptor mediated effects of 5-HT in guinea pig isolated ileum. In kind it is functional, tissue-based, Cavia porcellus.
Experiment [3] addresses Serotonin 2 (5-HT2) receptor (Rattus norvegicus) (UniProt P30994+P08909+P14842). Put plainly: Tested for the effect on binding at 5-hydroxytryptamine 2 receptor; No activity. In kind it is protein assay.
Experiment [4] addresses Alpha-2 adrenergic receptor (Rattus norvegicus). Put plainly: Affinity at Alpha-2 adrenergic receptor in rat brain.
For experiment [5], the target named is T1, 5-hydroxytryptamine receptor 1A (Rattus norvegicus) (UniProt P19327).
T1 sequence (whole entry): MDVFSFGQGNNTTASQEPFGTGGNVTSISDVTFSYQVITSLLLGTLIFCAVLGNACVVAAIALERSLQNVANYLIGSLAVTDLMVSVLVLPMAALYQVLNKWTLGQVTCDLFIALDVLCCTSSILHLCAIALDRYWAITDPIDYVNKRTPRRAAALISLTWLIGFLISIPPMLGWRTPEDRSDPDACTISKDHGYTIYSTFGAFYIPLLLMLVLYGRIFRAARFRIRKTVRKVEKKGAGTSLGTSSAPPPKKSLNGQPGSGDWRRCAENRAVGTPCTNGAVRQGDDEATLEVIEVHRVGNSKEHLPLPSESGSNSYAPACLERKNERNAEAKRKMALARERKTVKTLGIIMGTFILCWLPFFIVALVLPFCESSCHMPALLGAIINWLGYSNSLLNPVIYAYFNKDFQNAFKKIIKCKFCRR
In words: Tested for the effect on binding at 5-hydroxytryptamine 1A receptor; No activity.

Experiment [6] concerns Mustela putorius furo. Put plainly: Reduction in the number of episodes of emesis in ferrets at a dose of 0.01 mg/kg, po. The format is functional.
Experiment [7] relates to Mustela putorius furo. In words: Reduction in the number of episodes of emesis in 4 ferrets at a dose of 0.5 mg/kg, po. The format is functional.
The test system of experiment [8] is Rattus norvegicus. Put plainly: Percent maximum inhibition against Bezold-Jarisch reflex in 4 rats at a dose of 6 ug/kg, iv, after 5 min. In kind it is functional.
The subject of experiment [9] is Mustela putorius furo. In words: Reduction in the latency period to the first episode in ferret at a dose of 0.01 mg/kg, po. In kind it is functional.
The target of experiment [10] is T2, 5-hydroxytryptamine receptor 2C (Rattus norvegicus) (UniProt P08909).
T2 sequence (whole entry): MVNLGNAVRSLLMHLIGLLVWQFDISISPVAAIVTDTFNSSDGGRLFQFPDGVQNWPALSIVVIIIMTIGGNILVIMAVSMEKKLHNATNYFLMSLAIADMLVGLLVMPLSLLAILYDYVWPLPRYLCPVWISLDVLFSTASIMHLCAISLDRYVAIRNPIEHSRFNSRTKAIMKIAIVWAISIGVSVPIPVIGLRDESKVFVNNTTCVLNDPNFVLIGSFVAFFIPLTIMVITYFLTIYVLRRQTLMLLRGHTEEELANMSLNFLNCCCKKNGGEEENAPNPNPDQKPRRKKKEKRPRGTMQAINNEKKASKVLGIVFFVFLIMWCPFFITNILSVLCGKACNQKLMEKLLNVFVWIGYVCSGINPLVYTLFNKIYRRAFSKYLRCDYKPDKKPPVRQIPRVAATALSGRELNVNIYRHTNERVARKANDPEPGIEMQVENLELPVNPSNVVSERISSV
Put plainly: Tested for the effect on binding at 5-hydroxytryptamine 1C receptor; No activity.

Experiment [11] addresses 5-hydroxytryptamine receptor 4 (Rattus norvegicus) (UniProt Q62758). In words: Tested for the effect on binding at 5-hydroxytryptamine 4 receptor; No activity.
In experiment [12] the target is 5-hydroxytryptamine receptor 1D (Rattus norvegicus) (UniProt P28565). Put plainly: Tested for the effect on binding at 5-hydroxytryptamine 1D receptor; No activity.
Experiment [13] concerns Rattus norvegicus. In words: Dose required for inhibition of bradycardia induced by a submaximal dose (iv) of 5-HT in 4 rats. In kind it is functional. Conditions: read-out: ID50 (the source's name).
Experiment [14] deals with Mustela putorius furo. Put plainly: Reduction in the latency period to the first episode in ferret at a dose of 0.5 mg/kg, po. In kind it is functional.
In experiment [15] the test system is Rattus norvegicus. In words: Time required to achieve 50% recovery of Bezold-Jarisch reflex in 4 rats at a dose of 6 ug/kg, iv. The format is functional.
Experiment [16] relates to Rattus norvegicus. Put plainly: Dose required for inhibition of bradycardia induced by a submaximal dose (iv) of 5-HT in 5 rats. The conditions noted are these: read-out: ID50 (the source's name). The format is functional.
The subject of experiment [17] is Rattus norvegicus. In words: Dose required for inhibition of bradycardia induced by a submaximal dose (iv) of 5-HT in 6 rats. Conditions: read-out: ID50 (the source's name). In kind it is functional.
For experiment [18], the system named is Rattus norvegicus. Put plainly: Dose required for inhibition of bradycardia induced by a submaximal dose (iv) of 5-HT in 3 rats. The format is functional. Conditions: read-out: ID50 (the source's name).
For experiment [19], the system named is Rattus norvegicus. Put plainly: Time required to achieve 50% recovery of Bezold-Jarisch reflex in 5 rats at a dose of 6 ug/kg, iv. In kind it is functional.
The subject of experiment [20] is Rattus norvegicus. Put plainly: Percent maximum inhibition against Bezold-Jarisch reflex in 5 rats at a dose of 6 ug/kg, iv. In kind it is functional.
Experiment [21] concerns Rattus norvegicus. Put plainly: Dose required for inhibition of bradycardia induced by a submaximal dose (iv) of 5-HT in 7 rats. The format is functional. Conditions: read-out: ID50 (the source's name).
Experiment [22] has as its system Rattus norvegicus. Put plainly: Time required to achieve 50% recovery of Bezold-Jarisch reflex in 9 rats at a dose of 6 ug/kg, iv. In kind it is functional.

Activity calls are given as the source filed them. The rule behind the calls is not given here.

Sequence of 5-hydroxytryptamine receptor 1D (Rattus norvegicus) (P28565 whole entry): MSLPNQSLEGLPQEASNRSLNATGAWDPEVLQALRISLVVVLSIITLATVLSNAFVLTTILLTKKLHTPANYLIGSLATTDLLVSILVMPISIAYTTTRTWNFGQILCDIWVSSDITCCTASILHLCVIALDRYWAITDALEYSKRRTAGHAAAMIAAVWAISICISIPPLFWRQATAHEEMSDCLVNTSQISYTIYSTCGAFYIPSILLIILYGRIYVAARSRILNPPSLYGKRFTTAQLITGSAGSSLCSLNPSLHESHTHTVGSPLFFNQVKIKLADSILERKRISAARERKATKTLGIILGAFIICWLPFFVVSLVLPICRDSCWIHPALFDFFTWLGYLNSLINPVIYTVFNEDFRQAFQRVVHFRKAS
Sequence of Serotonin 2 (5-HT2) receptor (Rattus norvegicus) (P14842 whole entry, looked up, one chain of several): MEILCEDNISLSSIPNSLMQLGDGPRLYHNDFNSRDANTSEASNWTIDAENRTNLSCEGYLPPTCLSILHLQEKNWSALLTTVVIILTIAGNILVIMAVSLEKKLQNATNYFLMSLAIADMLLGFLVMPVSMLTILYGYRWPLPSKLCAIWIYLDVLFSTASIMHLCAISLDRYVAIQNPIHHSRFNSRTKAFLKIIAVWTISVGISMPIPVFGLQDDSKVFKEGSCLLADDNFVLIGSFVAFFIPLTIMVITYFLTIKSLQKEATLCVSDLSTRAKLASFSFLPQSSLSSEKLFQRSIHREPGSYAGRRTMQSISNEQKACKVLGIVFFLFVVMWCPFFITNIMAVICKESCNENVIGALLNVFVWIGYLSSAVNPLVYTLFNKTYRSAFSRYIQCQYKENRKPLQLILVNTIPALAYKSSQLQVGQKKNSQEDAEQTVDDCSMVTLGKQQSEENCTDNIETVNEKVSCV
Sequence of Serotonin 2 (5-HT2) receptor (Rattus norvegicus) (P30994 whole entry, looked up, one chain of several): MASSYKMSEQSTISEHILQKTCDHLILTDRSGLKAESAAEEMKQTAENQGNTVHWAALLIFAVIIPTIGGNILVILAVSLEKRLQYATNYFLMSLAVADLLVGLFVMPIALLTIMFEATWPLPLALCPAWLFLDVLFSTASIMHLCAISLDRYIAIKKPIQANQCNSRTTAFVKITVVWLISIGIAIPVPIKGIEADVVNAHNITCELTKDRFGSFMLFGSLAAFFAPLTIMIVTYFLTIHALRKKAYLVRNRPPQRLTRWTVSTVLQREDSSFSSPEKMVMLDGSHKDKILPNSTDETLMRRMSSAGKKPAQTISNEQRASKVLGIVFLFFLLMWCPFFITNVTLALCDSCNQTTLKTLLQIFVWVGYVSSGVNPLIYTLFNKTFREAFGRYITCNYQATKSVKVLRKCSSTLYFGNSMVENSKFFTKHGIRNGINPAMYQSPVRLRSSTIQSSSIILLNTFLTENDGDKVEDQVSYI
Sequence of 5-hydroxytryptamine receptor 4 (Rattus norvegicus) (Q62758 whole entry): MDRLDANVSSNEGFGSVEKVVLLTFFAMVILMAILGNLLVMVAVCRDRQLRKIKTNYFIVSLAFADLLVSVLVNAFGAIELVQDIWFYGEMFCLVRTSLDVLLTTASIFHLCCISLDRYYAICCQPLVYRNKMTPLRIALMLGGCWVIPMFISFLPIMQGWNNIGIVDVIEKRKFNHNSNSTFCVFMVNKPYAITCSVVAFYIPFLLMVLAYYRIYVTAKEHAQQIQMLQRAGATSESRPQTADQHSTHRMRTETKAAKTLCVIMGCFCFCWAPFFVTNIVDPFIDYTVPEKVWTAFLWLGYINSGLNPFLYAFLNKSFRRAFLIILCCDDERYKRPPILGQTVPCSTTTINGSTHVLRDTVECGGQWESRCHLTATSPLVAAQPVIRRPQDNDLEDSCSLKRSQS

Regarding `CN1C2CCC1CC(NC(=O)N1CC(C)(C)c3ccccc31)C2` (centres undefined), the ED50 with Rattus norvegicus [1] was 0.67 µg/kg.

In experiment [2], `Cc1[nH]cnc1CCC(=O)N1CC(C)(C)c2ccccc21` displayed a pA2 of 8.1. Moreover, the outcome in [3], in [5], in experiment [10], in [11] and in experiment [12] was inactive. Also, the “Log Ki” value in [4] was -6.2. Moreover, the Reduction in the experiment with Mustela putorius furo [6] was 7.7; in the experiment with Mustela putorius furo [7] it was 1.3. In addition, the inhibition in vivo at 0.006 mg/kg with Rattus norvegicus [8] is 91%. For the same compound, the Latency time in the experiment on Mustela putorius furo [9] is given as 22.5 min; with Mustela putorius furo [14], 90.5 min. In the experiment on Rattus norvegicus [13], the ED50 amounted to 2.2 µg/kg. Moreover, the Duration in the experiment on Rattus norvegicus [15] is given as 66 min.

For the compound `COc1ccccc1NC(=O)CCc1c[nH]cn1`, the ED50 in the experiment on Rattus norvegicus [16] was found to be 35 µg/kg.

As to `Cc1[nH]cnc1CCC(=O)c1nn(C)c2ccccc12`, the ED50 with Rattus norvegicus [17] turned out to be 3.1 µg/kg.

Take `CC1(C)CN(C(=O)CCc2c[nH]cn2)c2ccccc21`: in the experiment with Rattus norvegicus [18], the ED50 is 4.2 µg/kg.

In turn, `Cc1nccn1CC1CCc2c(c3ccccc3n2C)C1=O` (centres undefined) [ONDANSETRON] had a Duration with Rattus norvegicus [19] of 14 min. This compound returned an inhibition in vivo at 0.006 mg/kg in the experiment with Rattus norvegicus [20] of 68%. Further, the ED50 with Rattus norvegicus [13] is 3.6 µg/kg.

As to `COc1ccccc1NC(=O)NC1CC2CCC(C1)N2C` (centres undefined), the ED50 in the experiment with Rattus norvegicus [21] was 2.5 µg/kg.

Regarding `COc1ccccc1NC(=O)CCc1[nH]cnc1C`, the ED50 in the experiment with Rattus norvegicus [16] turned out to be 20 µg/kg.

With `CN1C2CCCC1CC(NC(=O)c1nn(C)c3ccccc13)C2` (centres undefined) [GRANISETRON], the Duration in the experiment on Rattus norvegicus [22] was 46 min.

The term pA2 denotes a measure of antagonist potency on a negative log scale. What is called inhibition in vivo is the drop in the measured response relative to a control, in per cent. Lower therefore signals a weak effect.
